Data taken from the NIST ThermoML archive (doi:10.1021/je2007764).

Assay: xn = mol fraction of the nth substance listed
Settings: Fluid (supercritical or subcritical phases), Buoyancy - hydrostatic balance with magnetic suspension - one sinker

[C-]#[O+] [carbon monoxide] + N#N
Settings | mass density [kg/m3]
250.04 K, 996.97 kPa, x1 = 0.04999 | 13.537
250.04 K, 1999 kPa, x1 = 0.04999 | 27.34
250.04 K, 4009.9 kPa, x1 = 0.04999 | 55.503
250.04 K, 6016.9 kPa, x1 = 0.04999 | 84.044
250.04 K, 16000 kPa, x1 = 0.04999 | 220.89
250.05 K, 969.13 kPa, x1 = 0.1002 | 13.157
250.05 K, 999.78 kPa, x1 = 0.1002 | 13.577
250.05 K, 2004.3 kPa, x1 = 0.1002 | 27.416
250.05 K, 3998.8 kPa, x1 = 0.1002 | 55.373
250.05 K, 7998.5 kPa, x1 = 0.04999 | 112.326
250.05 K, 8999 kPa, x1 = 0.1002 | 126.622
250.05 K, 9999.8 kPa, x1 = 0.04999 | 140.653
250.05 K, 11001 kPa, x1 = 0.1002 | 154.742
250.05 K, 11998 kPa, x1 = 0.04999 | 168.354
250.05 K, 13033 kPa, x1 = 0.1002 | 182.506
250.05 K, 14004 kPa, x1 = 0.04999 | 195.251
250.05 K, 15003 kPa, x1 = 0.1002 | 208.407
250.05 K, 17999 kPa, x1 = 0.04999 | 245.259
250.05 K, 18474 kPa, x1 = 0.04999 | 250.84
250.06 K, 3032.9 kPa, x1 = 0.1002 | 41.76
250.06 K, 5043.2 kPa, x1 = 0.1002 | 70.198
250.06 K, 5999.3 kPa, x1 = 0.1002 | 83.836
250.06 K, 6999.1 kPa, x1 = 0.1002 | 98.128
250.06 K, 7998.3 kPa, x1 = 0.1002 | 112.391
250.06 K, 9998.8 kPa, x1 = 0.1002 | 140.734
250.06 K, 11998 kPa, x1 = 0.1002 | 168.471
250.06 K, 13998 kPa, x1 = 0.1002 | 195.325
250.06 K, 15999 kPa, x1 = 0.1002 | 221.035
250.06 K, 16706 kPa, x1 = 0.1002 | 229.835
250.06 K, 18000 kPa, x1 = 0.1002 | 245.432
250.06 K, 19962 kPa, x1 = 0.1002 | 268.002
275.01 K, 997.91 kPa, x1 = 0.1002 | 12.276
275.01 K, 1984.4 kPa, x1 = 0.1002 | 24.502
275.01 K, 3998.5 kPa, x1 = 0.1002 | 49.641
275.01 K, 5998.9 kPa, x1 = 0.1002 | 74.708
275.01 K, 7999.4 kPa, x1 = 0.1002 | 99.667
275.02 K, 990.79 kPa, x1 = 0.04999 | 12.187
275.02 K, 1996 kPa, x1 = 0.04999 | 24.643
275.02 K, 4000.1 kPa, x1 = 0.04999 | 49.643
275.02 K, 9999.5 kPa, x1 = 0.1002 | 124.305
275.02 K, 11999 kPa, x1 = 0.04999 | 148.339
275.02 K, 12004 kPa, x1 = 0.1002 | 148.483
275.02 K, 13997 kPa, x1 = 0.04999 | 171.74
275.02 K, 14001 kPa, x1 = 0.1002 | 171.88
275.02 K, 15997 kPa, x1 = 0.04999 | 194.336
275.02 K, 15998 kPa, x1 = 0.1002 | 194.459
275.02 K, 17997 kPa, x1 = 0.1002 | 216.135
275.02 K, 18198 kPa, x1 = 0.04999 | 218.123
275.02 K, 19888 kPa, x1 = 0.1002 | 235.72
275.02 K, 19917 kPa, x1 = 0.04999 | 235.882
275.03 K, 6038.6 kPa, x1 = 0.04999 | 75.17
275.03 K, 8036.6 kPa, x1 = 0.04999 | 100.073
275.03 K, 10062 kPa, x1 = 0.04999 | 124.995
299.96 K, 1003.8 kPa, x1 = 0.04999 | 11.294
299.96 K, 2981.9 kPa, x1 = 0.04999 | 33.609
299.96 K, 4997.9 kPa, x1 = 0.04999 | 56.34
299.96 K, 6998.3 kPa, x1 = 0.04999 | 78.744
299.96 K, 9086.5 kPa, x1 = 0.04999 | 101.826
299.96 K, 11000 kPa, x1 = 0.04999 | 122.587
299.96 K, 12998 kPa, x1 = 0.04999 | 143.747
299.96 K, 14954 kPa, x1 = 0.04999 | 163.889
299.97 K, 986.71 kPa, x1 = 0.04999 | 11.101
299.97 K, 992.98 kPa, x1 = 0.1002 | 11.173
299.97 K, 1001.9 kPa, x1 = 0.1002 | 11.274
299.97 K, 1989.8 kPa, x1 = 0.1002 | 22.417
299.97 K, 1993.4 kPa, x1 = 0.04999 | 22.457
299.97 K, 2993.6 kPa, x1 = 0.1002 | 33.744
299.97 K, 3975 kPa, x1 = 0.04999 | 44.812
299.97 K, 3998.4 kPa, x1 = 0.1002 | 45.092
299.97 K, 5020.8 kPa, x1 = 0.1002 | 56.608
299.97 K, 5999.2 kPa, x1 = 0.1002 | 67.6
299.97 K, 6020.2 kPa, x1 = 0.04999 | 67.811
299.97 K, 7034 kPa, x1 = 0.1002 | 79.163
299.97 K, 8024.8 kPa, x1 = 0.04999 | 90.132
299.97 K, 9073.7 kPa, x1 = 0.1002 | 101.718
299.97 K, 9997.1 kPa, x1 = 0.1002 | 111.8
299.97 K, 10017 kPa, x1 = 0.04999 | 111.971
299.97 K, 11008 kPa, x1 = 0.1002 | 122.717
299.97 K, 11999 kPa, x1 = 0.1002 | 133.29
299.97 K, 13003 kPa, x1 = 0.1002 | 143.858
299.97 K, 13997 kPa, x1 = 0.1002 | 154.176
299.97 K, 14807 kPa, x1 = 0.1002 | 162.461
299.97 K, 15370 kPa, x1 = 0.1002 | 168.159
299.98 K, 7997.5 kPa, x1 = 0.1002 | 89.866
299.98 K, 11889 kPa, x1 = 0.04999 | 132.063
299.98 K, 13997 kPa, x1 = 0.04999 | 154.113
299.98 K, 15997 kPa, x1 = 0.04999 | 174.35
299.98 K, 16109 kPa, x1 = 0.1002 | 175.535
299.98 K, 17997 kPa, x1 = 0.04999 | 193.879
299.98 K, 17999 kPa, x1 = 0.1002 | 193.977
299.98 K, 19830 kPa, x1 = 0.1002 | 211.228
299.98 K, 19957 kPa, x1 = 0.04999 | 212.314
324.97 K, 13743 kPa, x1 = 0.04999 | 137.825
324.98 K, 996.21 kPa, x1 = 0.04999 | 10.328
324.98 K, 997.48 kPa, x1 = 0.1002 | 10.342
324.98 K, 1970.2 kPa, x1 = 0.1002 | 20.421
324.98 K, 1981.3 kPa, x1 = 0.04999 | 20.531
324.98 K, 2991.3 kPa, x1 = 0.04999 | 30.967
324.98 K, 3998.5 kPa, x1 = 0.1002 | 41.357
324.98 K, 4008.5 kPa, x1 = 0.04999 | 41.449
324.98 K, 4980 kPa, x1 = 0.04999 | 51.417
324.98 K, 5960.8 kPa, x1 = 0.04999 | 61.428
324.98 K, 6000 kPa, x1 = 0.1002 | 61.847
324.98 K, 7025.8 kPa, x1 = 0.04999 | 72.228
324.98 K, 7991 kPa, x1 = 0.04999 | 81.935
324.98 K, 7999.4 kPa, x1 = 0.1002 | 82.05
324.98 K, 8998.7 kPa, x1 = 0.04999 | 91.988
